The record followed here is ChEMBL document CHEMBL1136678, “Novel indole-based inhibitors of IMPDH: introduction of hydrogen bond acceptors at indole C-3” (Bioorg Med Chem Lett, 2003).

The target in assay [1] is Inosine-5'-monophosphate dehydrogenase 2 (Homo sapiens, UniProt P12268). Briefly: Inhibition of 5'-inosine monophosphate dehydrogenase type II (IMPDH II).
A further assay relates to CCRF-CEM. In words: Inhibition of CEM T-cell proliferation. The assay is classed as functional, cell-based. Particulars: Homo sapiens.
In assay [2] the target is Inosine-5'-monophosphate dehydrogenase 1 (Homo sapiens, UniProt P20839). In words: Inhibition of 5'-inosine monophosphate dehydrogenase type I (IMPDH I).
Inosine-5'-monophosphate dehydrogenase 1, sequence (P20839 whole entry): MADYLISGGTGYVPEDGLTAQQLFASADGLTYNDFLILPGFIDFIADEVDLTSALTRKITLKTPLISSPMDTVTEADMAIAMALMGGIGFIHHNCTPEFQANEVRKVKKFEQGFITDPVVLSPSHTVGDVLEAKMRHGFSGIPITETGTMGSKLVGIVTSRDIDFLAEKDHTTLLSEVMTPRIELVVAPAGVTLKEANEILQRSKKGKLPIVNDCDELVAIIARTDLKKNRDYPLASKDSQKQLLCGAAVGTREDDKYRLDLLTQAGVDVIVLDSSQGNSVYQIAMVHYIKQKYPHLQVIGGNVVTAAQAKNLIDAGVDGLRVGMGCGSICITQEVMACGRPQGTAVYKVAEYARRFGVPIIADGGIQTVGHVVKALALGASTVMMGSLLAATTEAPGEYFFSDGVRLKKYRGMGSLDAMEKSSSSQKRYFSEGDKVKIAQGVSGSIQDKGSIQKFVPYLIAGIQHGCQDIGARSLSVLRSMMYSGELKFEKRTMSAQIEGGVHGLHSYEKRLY

Some results are limits rather than exact numbers.

What is called IC50 is the concentration that gives 50% inhibition. Higher therefore signals weaker potency in that assay. Take `COc1cc2[nH]c(Cc3ccccc3)c(C#N)c2cc1-c1cnco1`: half-maximal inhibition in assay [1] (IC50) required 0.22 µM. This lies in the sub-micromolar range.
With `COc1cc2[nH]c(-c3ccccc3)cc2cc1-c1cnco1`, the figures for the half-maximal inhibitory concentration (IC50) (in assay [1]; with CCRF-CEM) were 0.5 µM and above 10 µM, respectively.
Regarding `COc1cc2[nH]c(-c3ccccc3)c(C#N)c2cc1-c1cnco1`, in assay [1], the IC50 was 0.13 µM.
Consider `COc1cc2[nH]c(-c3csc4ccccc34)c(C=O)c2cc1-c1cnco1`, for which the figures for the 50% inhibitory concentration (IC50) (in assay [1]; in assay [2]; in the assay on CCRF-CEM) were 0.03 µM, 0.16 µM and 0.55 µM, respectively.
In turn, `COc1cc2[nH]c(Cc3ccccc3)c(C=O)c2cc1-c1cnco1` yielded an IC50 in assay [1] of 0.36 µM. That is a sub-micromolar value.
On the same count and under the same terms, in the case of `COc1cc2[nH]c3c(c2cc1-c1cnco1)CCCC(=O)C3` it was 0.15 µM; in that of `COc1cc2[nH]c(-c3csc4ccccc34)c(C#N)c2cc1-c1cnco1`, 0.064 µM.
`CCOC(=O)c1c(-c2ccccc2)[nH]c2cc(OC)c(-c3cnco3)cc12`: the concentration for half-maximal inhibition (IC50) in assay [1] was above 1 µM.
`COc1cc2[nH]c(-c3csc4ccccc34)cc2cc1-c1cnco1` showed a 50% inhibitory concentration (IC50) in assay [1] of 0.5 µM.
For `COc1cc2[nH]c(-c3ccccc3)c(C=O)c2cc1-c1cnco1`, the midpoint of inhibition in assay [1], the IC50, lay at 0.23 µM.
Compound `COc1cc2[nH]c(Cc3ccccc3)cc2cc1-c1cnco1` gave a half-maximal inhibitory concentration (IC50) in assay [1] of 0.6 µM.
Turning to `COc1cc2[nH]c3c(c2cc1-c1cnco1)CC(=O)CC3`, the IC50 in assay [1] amounted to 0.29 µM.
